Like-named read-outs stand apart in the source and are kept apart here.
Legend:
Format in all cases: in vivo
[1] = Monocrotaline-induced pulmonary arterial hypertension in the rat; details: male, Sprague Dawley, in vivo, po, rat, 2 hours post-dosing at day 21, read-out: mean plasma concentration
Description: (§1) Compound (−)-17 was tested in monocrotaline-induced pulmonary arterial hypertension in the rat (see e.g., Stenmark et al, 2009, Am J Physiol Lung Cell Mol Physiol 297, L1013-L1032). Measurements included: mean arterial blood pressure and right ventricular pressure in vivo, ratio of right ventricular weight to left ventricular weight plus septum as an index of right ventricular hypertrophy, pulmonary artery acceleration time, and histological assessement of muscularization of pulmonary arteries.
(§2) Monocrotaline was dissolved in 1 N HCl and then into distilled water, and pH was adjusted to 7.4 using NaOH. A single dose of 60 mg/kg monocrotaline was administered subcutaneously on day 0 to three groups of male Sprague Dawley rats. The test article Compound (−)-17 was dissolved in 20% hydroxypropyl-beta-cyclodextrin with NaOH, HCl and mannitol in pyrogen-free water and administered orally by gavage (10 ml/kg) once daily from day 1 for 21 days at 10 mg/kg and 50 mg/kg. […] Corresponding volumes of 20% hydroxypropyl-beta-cyclodextrin vehicle were administered orally according to the same protocol in a third group of animals.

[2] = test system: monocrotaline-induced pulmonary arterial hypertension; test: as above; details: for MAP / PAAT / RV/(LV + S) / RVP: Day 21, mean ± SD
Description: as §1, §2

[3] = Cardiovascular effects in the anaesthetized guinea-pig; details: female, plasma, iv, guinea pig, end of 5-min i.v. infusion; for concentration at 5 min: read-out: Median plasma level; for Cmax: read-out: Median plasma level (Cmax)
Description: (§3) Female guinea-pigs were anesthetized with sodium pentobarbital (66 mg/kg i.p.) followed by a continuous i.v. infusion of 6 mg/h of sodium pentobarbital and prepared for measurements of the surface electrocardiogram (ECG), heart rate and mean arterial blood pressure (see De Clerck et al, Fundam. Clin. Pharm.; 2002; 16: 125-140). Compound (−)-17 was dissolved in 20% hydroxypropyl-cyclodextrin with NaOH, HCl and mannitol in pyrogen-free water and administered intravenously (0.5 ml/kg) in increasing doses (0.16, 0.32, 0.64, 1.25, 2.5 and 5 mg/kg) over a period of 5 min at 15-min intervals. Plasma concentrations of Compound (−)-17 were measured at the end of each infusion. Corresponding volumes of vehicle were administered according to the same protocol in a second group of animals.

anesthetized guinea-pig = test: as above
Description: as §3

[4] = 10 mg/kg p.o. once daily 21 days
[5] = 50 mg/kg p.o. once daily 21 days
[6] = rat, 10 mg and 50 mg p.o. once daily, three weeks
[7] = guinea pig i.v. 0.16 mg/kg @ 2′
[8] = guinea pig i.v. 0.16 mg/kg @ 5′
[9] = guinea pig i.v. 0.16 mg/kg @ 15′
[10] = guinea pig i.v. 0.32 mg/kg @ 2′
[11] = guinea pig i.v. 0.32 mg/kg @ 5′
[12] = guinea pig i.v. 0.32 mg/kg @ 15′
[13] = guinea pig i.v. 0.64 mg/kg @ 2′

In the case of COc1cc(N)c(Cl)cc1C(=O)NC1CCN(CCCOc2ccc(F)cc2)CC1(F)F (single isomer, unassigned) [Compound (−)-17, 4-amino-5-chloro-N-{3,3-difluoro-1-[3-(4-fluorophenoxy)-propyl]-piperidin-4-yl}-2-methoxybenzamide], the concentration at 2 h ([1]; 10 mg/kg, 10 mg p.o. once daily) is reported as about 80 ng/mL, the concentration at 2 h ([1]; 50 mg/kg, 50 mg p.o. once daily) is reported as 1000 ng/mL and the MAP [2, 4] is reported as 93.7 ± 14.11 mmHg. The PAAT [2, 4] was 15.91 ± 2.76 ms, the “RV/(LV + S)” value [2, 4] was 0.46 ± 0.08 and the RVP [2, 4] was 43.18 ± 7.38 mmHg. The MAP [2, 5] was 97.58 ± 9.74 mmHg, the PAAT [2, 5] was 15.42 ± 2.62 ms and the “RV/(LV + S)” value [2, 5] was 0.41 ± 0.08. The RVP [2, 5] was 42.85 ± 11.55 mmHg, the “toxicity of three-week treatment” value ([2]; rat, 10 mg and 50 mg p.o. once daily) was “non-toxic” and the “effect on mean arterial blood pressure (MAP)” value [2, 6] was “no effect”. The “effect on pulmonary artery acceleration time (PAAT)” value [2, 6] was “increased”, the “effect on right ventricular hypertrophy RV/(LV+S)” value [2, 6] was “reduced” and the “effect on right ventricular pressure (RVP)” value [2, 6] was “reduced”. For the same compound, the “monocrotaline-induced thickening of wall of small pulmonary arteries” value ([2]; rat, 10 mg p.o. three weeks (P<0.005)) was “reduced”, the “monocrotaline-induced thickening of wall of small pulmonary arteries” value ([2]; rat, 50 mg/kg p.o. three weeks (P=0.0539)) was “reduced” and the concentration at 5 min ([3]; dose 0.16 mg/kg (increasing doses, 15-min intervals)) was 398 ng/mL. For the same compound, the concentration at 5 min ([3]; dose 0.32 mg/kg (increasing doses, 15-min intervals)) was 873 ng/mL, the concentration at 5 min ([3]; dose 0.64 mg/kg (increasing doses, 15-min intervals)) was 1820 ng/mL and the concentration at 5 min ([3]; dose 1.25 mg/kg (increasing doses, 15-min intervals)) was 3330 ng/mL. The Cmax ([3]; dose 2.5 mg/kg (increasing doses, 15-min intervals)) was 6320 ng/mL, the Cmax ([3]; dose 5 mg/kg (increasing doses, 15-min intervals; total dose 9.87 mg/kg)) was 12000 ng/mL and the “HR, percentage change relative to baseline” value (anesthetized guinea-pig; [7]) was −1%. The “MBP, percentage change relative to baseline” value (anesthetized guinea-pig; [7]) was 4%, the “PQ, percentage change relative to baseline” value (anesthetized guinea-pig; [7]) was 0% and the “QRS, percentage change relative to baseline” value (anesthetized guinea-pig; [7]) was −2%. For the same compound, the “QT, percentage change relative to baseline” value (anesthetized guinea-pig; [7]) was 0%, the “QTc B, percentage change relative to baseline” value (anesthetized guinea-pig; [7]) was −1% and the “HR, percentage change relative to baseline” value (anesthetized guinea-pig; [8]) was 0%. For the same compound, the “PQ, percentage change relative to baseline” value (anesthetized guinea-pig; [8]) was 1%, the “QRS, percentage change relative to baseline” value (anesthetized guinea-pig; [8]) was −2% and the “QT, percentage change relative to baseline” value (anesthetized guinea-pig; [8]) was −1%. The “QTc B, percentage change relative to baseline” value (anesthetized guinea-pig; [8]) was −1%, the “HR, percentage change relative to baseline” value (anesthetized guinea-pig; [9]) was −2% and the “MBP, percentage change relative to baseline” value (anesthetized guinea-pig; [9]) was −3%. For the same compound, the “PQ, percentage change relative to baseline” value (anesthetized guinea-pig; [9]) was 4%, the “QRS, percentage change relative to baseline” value (anesthetized guinea-pig; [9]) was 0% and the “QT, percentage change relative to baseline” value (anesthetized guinea-pig; [9]) was 1%. The “QTc B, percentage change relative to baseline” value (anesthetized guinea-pig; [9]) was 1%, the “HR, percentage change relative to baseline” value (anesthetized guinea-pig; [10]) was −1% and the “MBP, percentage change relative to baseline” value (anesthetized guinea-pig; [10]) was 6%. The “PQ, percentage change relative to baseline” value (anesthetized guinea-pig; [10]) was 2%, the “QRS, percentage change relative to baseline” value (anesthetized guinea-pig; [10]) was −2% and the “QT, percentage change relative to baseline” value (anesthetized guinea-pig; [10]) was 0%. For the same compound, the “QTc B, percentage change relative to baseline” value (anesthetized guinea-pig; [10]) was 1%, the “HR, percentage change relative to baseline” value (anesthetized guinea-pig; [11]) was −4% and the “MBP, percentage change relative to baseline” value (anesthetized guinea-pig; [11]) was 2%. For the same compound, the “PQ, percentage change relative to baseline” value (anesthetized guinea-pig; [11]) was 4%, the “QRS, percentage change relative to baseline” value (anesthetized guinea-pig; [11]) was 0% and the “QT, percentage change relative to baseline” value (anesthetized guinea-pig; [11]) was 3%. The “QTc B, percentage change relative to baseline” value (anesthetized guinea-pig; [11]) was 1%, the “HR, percentage change relative to baseline” value (anesthetized guinea-pig; [12]) was −4% and the “MBP, percentage change relative to baseline” value (anesthetized guinea-pig; [12]) was −3%. The “PQ, percentage change relative to baseline” value (anesthetized guinea-pig; [12]) was 4%, the “QRS, percentage change relative to baseline” value (anesthetized guinea-pig; [12]) was 0% and the “QT, percentage change relative to baseline” value (anesthetized guinea-pig; [12]) was 4%. For the same compound, the “QTc B, percentage change relative to baseline” value (anesthetized guinea-pig; [12]) was 3%, the “HR, percentage change relative to baseline” value (anesthetized guinea-pig; [13]) was −5% and the “MBP, percentage change relative to baseline” value (anesthetized guinea-pig; [13]) was 6%. For the same compound, the “PQ, percentage change relative to baseline” value (anesthetized guinea-pig; [13]) was 5%.
